Target: T1, hP2X7 (Homo sapiens, UniProt Q99572)
T1 construct: expressed in transfected cells; host or cells: 1321N1 astrocytoma cells
T1 sequence (Q99572 1-595): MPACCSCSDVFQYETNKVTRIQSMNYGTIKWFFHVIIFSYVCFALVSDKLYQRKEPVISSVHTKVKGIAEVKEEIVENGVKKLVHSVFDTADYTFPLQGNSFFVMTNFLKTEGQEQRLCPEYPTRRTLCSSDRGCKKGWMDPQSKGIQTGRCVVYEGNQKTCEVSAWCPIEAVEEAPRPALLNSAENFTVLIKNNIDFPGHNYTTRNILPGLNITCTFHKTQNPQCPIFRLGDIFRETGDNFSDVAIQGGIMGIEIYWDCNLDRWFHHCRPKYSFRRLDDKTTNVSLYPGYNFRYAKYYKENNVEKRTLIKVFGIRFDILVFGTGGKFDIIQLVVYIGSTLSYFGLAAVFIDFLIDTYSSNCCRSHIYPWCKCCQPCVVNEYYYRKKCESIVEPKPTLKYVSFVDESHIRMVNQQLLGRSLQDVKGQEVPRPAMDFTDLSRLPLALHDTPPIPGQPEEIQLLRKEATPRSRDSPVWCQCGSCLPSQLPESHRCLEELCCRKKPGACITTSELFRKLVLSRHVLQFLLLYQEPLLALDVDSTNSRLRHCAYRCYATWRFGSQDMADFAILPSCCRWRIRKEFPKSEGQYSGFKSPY
Experiment: P2X7 antagonism: ligand-induced Ca2+ flux in 1321N1 astrocytoma cells overexpressing hP2X7
Format: cell-based
Conditions: pIC50 = -log(IC50), read-out: hP2RX7pIC50 (mean pIC50 values) (converted)
Description: Extracellular binding of ATP to P2X7 that is expressed in the cell-membrane opens the ligand gated cation channel and allows Ca^2+ entry into the cell. This ligand-induced Ca^2+ flux was measured in 1321N1 astrocytoma cells overexpressing hP2X7 for the compounds of the present invention.
The calcium assay kit used (Molecular Devices, R8090), provides a Ca^2+ sensitive dye together with a quenching dye. However, no specifications are given by the manufacturer. The kit most likely consists of a membrane permeable acetoxymethyl (AM) ester of a fluorescent Ca^2+ indicator, such as fluo-4 or fluo-3. Upon cellular uptake, the AM esters get cleaved by esterases, liberating the Ca^2+-sensitive dye which can then bind calcium. The dyes have an absorption spectrum compatible with excitation at 488 nm by argon laser sources and a large fluorescence intensity increase in response to Ca^2+ binding without an accompanying spectral shift. Emission wavelength is in the range of 510-560 nm.
The fluorescence, and thus the changes in intracellular [Ca^2+] in the 1321N1 cells was monitored in time before and after addition of the agonist. The effect of the antagonist was measured as % control and as IC50.

Compound: O=C(NCC(c1ccc(C(F)(F)F)nc1)N1CCC(F)(F)CC1)c1cccc2ncccc12 (single isomer, unassigned) [Compound 10]
- IC50: 43.7 nM

Compound: O=C(NCC(c1ccc(C(F)(F)F)nc1)N1CCC(F)(F)CC1)c1cccc2ncccc12 (single isomer, unassigned) [Compound 11]
- IC50: 52.5 nM

Compound: O=C(NCC(c1cnc(C(F)(F)F)nc1)N1CCC(F)(F)CC1)c1cccc2ncccc12 (single isomer, unassigned) [Compound 47]
- IC50: 38 nM

Compound: O=C(NC[C@H](c1cnc(C(F)(F)F)nc1)N1CCOCC1)c1cccc2nc(NC3CC3)ccc12 (single isomer, unassigned) [Compound 174]
- IC50: 66.1 nM

Compound: O=C(NCC(c1ccc(C(F)(F)F)nc1)N1CCC(F)(F)CC1)c1cccc2ncccc12 (stereo not drawn) [Compound 1]
- IC50: 58.9 nM

Compound: O=C(NCC(c1ccc(Br)nc1)N1CCC(F)(F)CC1)c1cccc2ncccc12 (stereo not drawn) [Compound 2]
- IC50: 21.4 nM

Compound: O=C(NCC(c1cccnc1Cl)N1CCC(F)(F)CC1)c1cccc2ncccc12 (stereo not drawn) [Compound 3]
- IC50: 3630 nM

Compound: COc1cc(C(=O)NCC(c2ccc(C(F)(F)F)nc2)N2CCC(F)(F)CC2)nc2ccccc12 (stereo not drawn) [Compound 12]
- IC50: 3240 nM

Compound: O=C(NCC(c1ccc(C(F)(F)F)nc1)N1CCC(F)(F)CC1)c1ccc2ccccc2n1 (stereo not drawn) [Compound 14]
- IC50: 178 nM

Compound: O=C(NCC(c1ccc(C(F)(F)F)nc1)N1CCC(F)(F)CC1)c1cccc2cnccc12 (stereo not drawn) [Compound 16]
- IC50: 224 nM

Compound: CCCc1cc(C(=O)NCC(c2ccc(C(F)(F)F)nc2)N2CCC(F)(F)CC2)c2ccccc2n1 (stereo not drawn) [Compound 18]
- IC50: 55 nM

Compound: CCc1cc2cc(C(=O)NCC(c3ccc(C(F)(F)F)nc3)N3CCC(F)(F)CC3)ccc2nc1C (stereo not drawn) [Compound 24]
- IC50: 5250 nM

Compound: O=C(NCC(c1ccccn1)N1CCC(F)(F)CC1)c1cccc2ncccc12 (stereo not drawn) [Compound 25]
- IC50: > 10000 nM

Compound: O=C(NCC(c1ccc(C(F)(F)F)nc1)N1CCC(c2ccccc2)CC1)c1cccc2ncccc12 (stereo not drawn) [Compound 27]
- IC50: > 10000 nM

Compound: O=C(NCC(c1ccc(C(F)(F)F)nc1)N1CCOCC1)c1cccc2ncccc12 (stereo not drawn) [Compound 31]
- IC50: 107 nM

Compound: O=C(NCC(c1cnc(C(F)(F)F)nc1)N1CCC(F)(F)CC1)c1cccc2nc(NCCCO)ccc12 (stereo not drawn) [Compound 40]
- IC50: 34.7 nM

Compound: COc1ccc2c(C(=O)NCC(c3cnc(C(F)(F)F)nc3)N3CCC(F)(F)CC3)cccc2n1 (stereo not drawn) [Compound 41]
- IC50: 45.7 nM

Compound: O=C(NCC(c1cnc(C(F)(F)F)nc1)N1CCC(F)(F)CC1)c1cccc2nc(NCC3CC3)ccc12 (stereo not drawn) [Compound 42]
- IC50: 38 nM

Compound: O=C(NCC(c1cnc(C(F)(F)F)nc1)N1CCCC1)c1cccc2ncccc12 (stereo not drawn) [Compound 45]
- IC50: 955 nM

Compound: O=C(NCC(c1cnc(C(F)(F)F)nc1)N1CCCCCC1)c1cccc2ncccc12 (stereo not drawn) [Compound 52]
- IC50: 19.1 nM

Compound: O=C(NCC(c1cnc(C(F)(F)F)nc1)N1CCC(F)(F)CC1)c1cccc2nc(N3CCC(O)C3)ccc12 (stereo not drawn) [Compound 56]
- IC50: 49 nM

Compound: O=C(NCC(c1cnc(C(F)(F)F)nc1)N1CCCC(F)(F)C1)c1cccc2ncccc12 (stereo not drawn) [Compound 66]
- IC50: 18.2 nM

Compound: O=C(NCC(c1cnc(C(F)(F)F)nc1)N1CCCC(F)C1)c1cccc2ncccc12 (stereo not drawn) [Compound 71]
- IC50: 30.9 nM

Compound: CC1CN(C(CNC(=O)c2cccc3ncccc23)c2cnc(C(F)(F)F)nc2)CCO1 (stereo not drawn) [Compound 72]
- IC50: 302 nM

Compound: CC1CCCCN1C(CNC(=O)c1cccc2ncccc12)c1cnc(C(F)(F)F)nc1 (stereo not drawn) [Compound 73]
- IC50: 50.1 nM

Compound: O=C(NCC(c1cnc(C(F)(F)F)nc1)N1CCCOCC1)c1cccc2nc(N3CCOCC3)ccc12 (stereo not drawn) [Compound 87]
- IC50: 44.7 nM

Compound: O=C(NCC(c1cnc(C(F)(F)F)nc1)N1CCCOCC1)c1cccc2nc(NCCO)ccc12 (stereo not drawn) [Compound 89]
- IC50: 85.1 nM

Compound: O=C(NCC(c1cnc(C(F)(F)F)nc1)N1CCCOCC1)c1cccc2nc(NCCCO)ccc12 (stereo not drawn) [Compound 90]
- IC50: 87.1 nM

Compound: O=C(NCC(c1cnc(C(F)(F)F)nc1)N1CCCOCC1)c1cccc2nc(NCC3CCOCC3)ccc12 (stereo not drawn) [Compound 94]
- IC50: 81.3 nM

Compound: O=C(NCC(c1cnc(C(F)(F)F)nc1)N1CCCOCC1)c1cccc2nc(NC3CC3)ccc12 (stereo not drawn) [Compound 95]
- IC50: 44.7 nM
